According to ChEMBL document CHEMBL1201862, “PubChem BioAssay data set” (2004):
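How tested: cells in 96-well plates exposed to compound for 48 hours at five concentrations. GI50 marks 50% less growth.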 Calls of active or inactive are those of the source. No stated cut-off is given here; in the data, active = GI50 up to about 1.1 µM and inactive = higher.

What was measured:
Experiment in all cases: NCI-60 cell line screen, 48 h
[1] = tested on: ACHN
[2] = tested on: NCI-H23
[3] = tested on: MOLT-4
[4] = tested on: LXFL 529
[5] = tested on: HT-29
[6] = tested on: A498
[7] = tested on: OVCAR-8
[8] = tested on: KM12
[9] = tested on: HOP-92
[10] = tested on: M14
[11] = tested on: M19-MEL
[12] = tested on: A549
[13] = tested on: SF-268
[14] = tested on: HL-60
[15] = tested on: SNB-19
[16] = tested on: NCI-H460
[17] = tested on: SK-MEL-5
[18] = tested on: SK-MEL-2
[19] = tested on: SR
[20] = tested on: U-251
[21] = tested on: LOX IMVI
[22] = tested on: Malme-3M
[23] = tested on: COLO 205
[24] = tested on: HOP-62
[25] = tested on: OVCAR-3
[26] = tested on: DLD-1
[27] = tested on: HCT-15
[28] = tested on: OVCAR-4
[29] = tested on: HCT-116
[30] = tested on: K562
[31] = tested on: DMS-273
[32] = tested on: CCRF-CEM
[33] = tested on: OVCAR-5
[34] = tested on: SNB-75
[35] = tested on: SN12C
[36] = tested on: HOP-18
[37] = tested on: SK-MEL-28
[38] = tested on: HCC 2998
[39] = tested on: KM-20L2
[40] = tested on: UO-31
[41] = tested on: TK-10
[42] = tested on: RXF 393
[43] = tested on: SF-539
[44] = tested on: IGROV-1
[45] = tested on: SK-OV-3
[46] = tested on: SW-620
[47] = tested on: 786-0
[48] = tested on: CAKI-1
[49] = tested on: UACC-62
[50] = tested on: SF-295
[51] = tested on: NCI-H522
[52] = tested on: DMS-114
[53] = tested on: RPMI-8226

COc1ccc(-c2nc3c(nc2-c2ccc(OC)cc2)N(C)S(=O)(=O)N=C3N)cc1
GI50 [1]: 19.1 µM (inactive)
GI50 [2]: 28.7 µM (inactive)
GI50 [3]: 11.9 µM (inactive)
GI50 [4]: 27.3 µM (inactive)
GI50 [5]: 25.4 µM (inactive)
GI50 [6]: 22.5 µM (inactive)
GI50 [7]: 34.2 µM (inactive)
GI50 [8]: 22.8 µM (inactive)
GI50 [9]: 13.6 µM (inactive)
GI50 [10]: 34.4 µM (inactive)
GI50 [11]: 31.5 µM (inactive)
GI50 [12]: 27 µM (inactive)
GI50 [13]: 24.3 µM (inactive)
GI50 [14]: 15.9 µM (inactive)
GI50 [15]: 28.1 µM (inactive)
GI50 [16]: 22.8 µM (inactive)
GI50 [17]: 11.6 µM (inactive)
GI50 [18]: 20.5 µM (inactive)
GI50 [19]: 9.89 µM (inactive)
GI50 [20]: 26.1 µM (inactive)
GI50 [21]: 15.5 µM (inactive)
GI50 [22]: 22.7 µM (inactive)
GI50 [23]: 14.7 µM (inactive)
GI50 [24]: 33.6 µM (inactive)
GI50 [25]: 14 µM (inactive)
GI50 [26]: 33.3 µM (inactive)
GI50 [27]: 32.4 µM
GI50 [28]: 14.1 µM (inactive)
GI50 [29]: 15 µM (inactive)
GI50 [30]: 24.4 µM (inactive)
GI50 [31]: 41.6 µM (inactive)
GI50 [32]: 23.1 µM (inactive)
GI50 [33]: 25.2 µM (inactive)
GI50 [34]: 24 µM (inactive)
GI50 [35]: 41 µM (inactive)
GI50 [36]: 47.2 µM (inactive)
GI50 [37]: 32.1 µM (inactive)
GI50 [38]: 35.6 µM (inactive)
GI50 [39]: 40.6 µM (inactive)
GI50 [40]: 13.6 µM (inactive)
GI50 [41]: 28.1 µM (inactive)
GI50 [42]: 10.9 µM (inactive)
GI50 [43]: 18.3 µM (inactive)
GI50 [44]: 28.1 µM (inactive)
GI50 [45]: 24.6 µM (inactive)
GI50 [46]: 28.8 µM (inactive)
GI50 [47]: 16.9 µM (inactive)
GI50 [48]: 23.2 µM (inactive)
GI50 [49]: 22.8 µM (inactive)
GI50 [50]: 22.3 µM (inactive)
GI50 [51]: 9.59 µM (inactive)
GI50 [52]: 17.3 µM (inactive)
GI50 [53]: 10.6 µM (inactive)
